These results are taken from US4772615A, “Various N-substituted 3-piperidine carboxylic acids or N-substituted 3-pyridinecarboxylic acids and derivatives thereof” (Warner-Lambert Company, priority 1987, dated 1988).

Test [1] has as its system uptake of the neurotransmitter gamma-amino-butyric acid (GABA) into slices of rat hippocampal (brain) tissue. Description: Uptake of 3H-GABA into slices (prisms) of rat hippocampus in vitro. It counts as biochemical, Male Long Evans rats. The settings on record: 3H-GABA 0.05 μM; 10 mg tissue, 15 min with test compound at 37° C., 2 min uptake; read-out: IC50 (Calculated Median (50%) Inhibitory Concentration). As for the experimental part: The compounds of formula I are tested for pharmacological activity using three procedures. The first is an assay for the uptake of the neurotransmitter gamma-amino-butyric acid (GABA) into slices of rat hippocampal (brain) tissue incubated in vitro analogous to those described by Johnston, GAR, et al, in J. Neurochem. 26:1029-1032 (1976) entitled "Inhibition of the Uptake of GABA and Related Amino Acids in Rat Brain Slices by the Optical Isomers of Nipecotic Acid." Methods for this test are described in the following paragraph.
Male Long Evans rats (200-300 g) were sacrificed by decapitation, the brains quickly removed and the hippocampi were dissected out. Slices were cut (0.1×0.1 mm) on a McIlwain tissue chopper and dispersed in ice-chilled Krebs Ringer HEPES-buffered medium. Normal medium was composed of: NaCl (119 mM), KCl (4.75 mM), CaCl2 (1.25 mM), KH2 PO4 (1.20 mM), MgSO4 (1.18 mM), HEPES (22 mM), EDTA (0.03 mM), ascorbate (0.6 mM), and glucose (10 mM). The pH was adjusted to 7.2 with 3.0M Tris HCl. Following two washes in normal medium, 10 mg of tissue was incubated in a 3 ml volume of medium at 37° C. for 15 min in the presence or absence of test compound. ^3 H-GABA (80.8 Ci/mmole; 0.05 μM final concentration) was added to each flask and the uptake was allowed to proceed for a two min period. At the end of the uptake period, samples were rapidly filtered through Whatman GF/F filters and washed once with 5 ml ice-chilled 0.9% sodium chloride. The filters with tissue were placed into scintillation vials with 2 ml H2 O and allowed to sit for at least 60 min before scintillation fluid was added and samples counted. Blanks were treated in a manner similar to other samples, but were left on ice throughout the experiment. Results are expressed as percent control (no drug present) or IC50 value.
Table I. GABA uptake into prisms of rat hippocampus in vitro in the presence of different concentrations of various synthetic compounds of formula I.

For test [2], the system named is tonic hindlimb extensor seizures. Put plainly: Threshold Maximal Electroshock (animal model for generalized seizures). The settings on record: Mus musculus, ip, 0.5 h. It counts as in vivo, Male CF-1 mice. (In general: The maximal electroshock test induces tonic seizures with an electrical stimulus.)
Description: Male CF-1 mice (22-30 grams) are allowed free access to food and water prior to testing. For screening, groups of five mice are given a compound intraperitoneally at doses of 30, 100, and 300 mg/kg and tested at 0.5, 2.0, and 4.0 hr after dosing. Drugs are either dissolved in 0.9% saline or suspended in 0.2% methylcellulose. Animals are shocked with corneal electrodes (see below) and observed for tonic hindlimb extensor seizures. Absence of hindlimb extension is taken as an anticonvulsant effect.
The electroshock apparatus delivers a 60 Hz sine wave with a current amplitude of 14 mA (peak-to-peak) for 0.2 seconds. The current strength of 14 mA used in this procedure produces tonic extensor seizures in approximately 95% of untreated mice, but is only slightly above threshold for tonic extension.
Test [3] has as its system threshold clonic seizures in mice caused by subcutaneous administration of pentylenetetrazol. Put plainly: Attenuation of threshold clonic seizures in mice caused by subcutaneous pentylenetetrazol (model for absence type seizures). It counts as in vivo. The conditions noted are these: Mus musculus, pentylenetetrazol 85 mg/kg s.c., read-out: Calculated Median Effective Dose (ED50). As for the experimental part: A third pharmacological test was performed as described in R. L. Krall et al, Epilepsia, 19:409 (1978), which is incorporated herein by reference. In this procedure, drugs were tested for attenuation of threshold clonic seizures in mice caused by subcutaneous administration of pentylenetetrazol (85 mg/kg) which is a generally accepted model for absence type seizures. Results from the third test for the compound when administered either intraperitoneally (IP) or orally (PO) are shown below in Table III.

[4] abbreviates: read-out: Number of Animals Protected from Seizures (n/5).
Setting [5] is: 30 mg/kg, intraperitoneal, 30 minutes after administration, read-out: Number of Animals Protected from Seizures (n/5).
Setting [6] is: 2 h, PO, tested 120 min following dosing.

Structures can show the parent of a compound that is named as a salt. Where two headings read alike, the source gives them in different places.

On to `CCOC(=O)C1CCCN(CCOC(c2ccc(Cl)cc2)c2ccc(Cl)cc2)C1` (centres unmarked) [Example I, 3-Piperidinecarboxylic acid 1-[2-[bis-(4-chlorophenyl)methoxy]ethyl]-, ethyl ester], for which the IC50 in test [1] is 12000 nM. In test [2] (setting [4]), the responders at 30 mg/kg worked out at 0% and the responders at 100 mg/kg is 60%.

As to `O=C(O)C1CCCN(CCOC(c2ccccc2)c2ccc(Cl)c(Cl)c2)C1` (centres unmarked) [Example IX, 3-Piperidinecarboxylic acid, 1-[2-[(3,4-dichlorophenyl)phenylmethoxy]ethyl]-, monohydrochloride], in test [2] (setting [4]), the responders at 30 mg/kg was 60% and the responders at 100 mg/kg is 80%.

For `CCOC(=O)C1CCCN(CCOC(c2ccccc2)c2ccccc2)C1` (centres unmarked) [II, 3-Piperidinecarboxylic acid, 1-[2-(diphenylmethoxy)ethyl]-, ethyl ester], the IC50 in test [1] is roughly 35000 nM. Also, in test [2] (setting [4]), the responders at 30 mg/kg was 20% and the responders at 100 mg/kg is 80%.

For the compound `CCOC(=O)C1CCCN(CCCOC(c2ccccc2)c2ccccc2)C1` (centres unmarked) [III, 3-Piperidinecarboxylic acid, 1-[3-(diphenylmethoxy)propyl]-, ethyl ester, monohydrochloride], the responders at 30 mg/kg in test [2] (setting [5]) came to 0%.

`CCOC(=O)C1CCCN(CCSC(c2ccccc2)c2ccccc2)C1` (centres unmarked) [IV, 3-Piperidinecarboxylic acid, 1-[2-[(diphenylmethyl)thio]ethyl]-, ethyl ester]: the IC50 in test [1] is roughly 60000 nM.

Regarding `O=C(O)C1CCCN(CCCOC(c2ccccc2)c2ccccc2)C1` (centres unmarked) [VI, 3-Piperidinecarboxylic acid, 1-[3-diphenylmethoxy)propyl]-, monohydrochloride], the IC50 in test [1] is 11000 nM. Also, in test [2] (setting [5]), the responders at 30 mg/kg stood at 0%. The responders at 100 mg/kg in test [2] (100 mg/kg, intraperitoneal, 30 minutes after administration, read-out: Number of Animals Protected from Seizures (n/5) (converted)) was 20%.

Broadly, the ED50 is the midpoint of the dose-response relation. In the case of `Cl.O=C(O)C1CCCN(CCOC(c2ccccc2)c2ccccc2)C1` (centres unmarked) [VII, 3-Piperidinecarboxylic acid, 1-[2-(diphenylmethoxy)ethyl]-, monohydrochloride], in test [1], the IC50 was 3000 nM. Besides, in test [2] (setting [4]), the responders at 30 mg/kg was 25% and the responders at 100 mg/kg is 50%. Besides, the ED50 in test [3] (0.5 h, IP, tested 30 min following dosing) is 1.9 mg/kg.

In the case of `O=C(O)C1CCCN(CCOC(c2ccc(Cl)cc2)c2ccc(Cl)cc2)C1` (centres unmarked) [VIII, 3-piperidinecarboxylic acid, 1-[2-[bis(4-chlorophenyl)methoxy]ethyl]monohydrochloride], the IC50 in test [1] was 290 nM. In test [2] (setting [4]), the responders at 30 mg/kg was 80% and the responders at 100 mg/kg is 80%. For the same compound, the median effective dose (ED50) in test [3] (setting [6]) is 0.54 mg/kg.

In the case of `O=C(O)C1CCCN(CCOC(c2ccccc2)c2ccc(Cl)c(C(F)(F)F)c2)C1` (centres unmarked) [X, 3-Piperidinecarboxylic acid, 1-[2-[[4-chloro-3-(trifluoromethyl)phenyl]phenylmethoxy]ethyl]monohydrochloride], the IC50 in test [1] is 860 nM. For the same compound, in test [2] (setting [4]), the responders at 30 mg/kg was 20% and the responders at 100 mg/kg is 100%.

For `O=C(O)C1CCCN(CCOC2c3ccccc3C=Cc3ccccc32)C1` (centres unmarked) [XI, 3-Piperidinecarboxylic acid, 1-[2-[(5H-dibenzo[a,d]cyclohepten-5-yloxy)ethyl]]-], in test [2] (setting [4]), the responders at 30 mg/kg is 20% and the responders at 100 mg/kg was 40%.

For `O=C(O)C1CCCN(CCOC(c2ccc(F)cc2)c2ccc(F)cc2)C1` (centres unmarked) [XIII, 3-Piperidinecarboxylic acid, 1-[2-[bis (4-fluorophenyl)methoxy]ethyl]-, monohydrochloride], in test [2] (setting [4]), the responders at 30 mg/kg is 40% and the responders at 100 mg/kg is 40%.

As to `O=C(O)C1=CCCN(CCOC(c2ccc(Cl)cc2)c2ccc(Cl)cc2)C1` [XIX, 3-Pyridinecarboxylic acid, 1-[2-[bis(4-chlorophenyl)methoxy]ethyl]-1,2,5,6-tetrahydro, hydrochloride], the IC50 in test [1] is 100 nM. Besides, in test [2] (setting [4]), the responders at 30 mg/kg was 80% and the responders at 100 mg/kg was 100%.

As for `Cl.O=C(O)C1=CCCN(CCOC(c2ccc(C(F)(F)F)cc2)c2ccc(C(F)(F)F)cc2)C1` [XVII, 3-Pyridinecarboxylic acid, 1-[2-[bis[4-(trifluoromethyl)phenyl]methoxy]ethyl]-1,2,5,6-tetrahydro-, monohydrochloride], the IC50 in test [1] was 450 nM. For the same compound, in test [2] (setting [4]), the responders at 30 mg/kg was 80% and the responders at 100 mg/kg was 80%. Moreover, in test [3] (setting [6]), the ED50 is 0.5 mg/kg.

In the case of `O=C(O)C1CCCN(CCOC(c2ccc(C(F)(F)F)cc2)c2ccc(C(F)(F)F)cc2)C1` (centres unmarked) [XVIII, 3-Piperidinecarboxylic acid, 1-[2-[bis[4-(trifluoromethyl)phenyl]methoxy]ethyl]-, hydrochloride], the IC50 in test [1] was 700 nM. Besides, in test [2] (setting [4]), the responders at 30 mg/kg was 100% and the responders at 100 mg/kg is 100%.
